The EC50 is the concentration giving half of the maximal effect.

The record followed here is PubChem BioAssay AID1598.

Structures are written as SMILES. Records with an inconclusive call do not appear.

This assay concerns SMN2 vs SMN1 luciferase splicing reporter cells. Briefly: selective SMN2 exon splicing luciferase activators – cell-based, SMN2/SMN1 luciferase reporters (AID 1598). As to conditions: measured here: SMN luciferase EC50 follow-up. (In general: In a reporter assay the amount or activity of a reporter protein is the signal.)
Consider `CC[C@@]1(O)C(=O)OCc2c1cc1n(c2=O)Cc2cc3ccccc3nc2-1`, for which the concentration giving a half-maximal response (EC50) came out at 2500 nM.

The compound `O=C1C=C2C(=CCOC2O)O1` (configuration not stated) returned a 50% effective concentration (EC50) of 5000 nM.

Regarding `CO[C@@]1(NC(=O)Cc2cccs2)C(=O)N2C(C(=O)O)=C(COC(N)=O)CS[C@@H]21`, the EC50 was 2500 nM.

Consider `NC12CC3CC(CC(C3)C1)C2`, for which the half-maximal effective concentration (EC50) was 400 nM.

As for `CC[C@@]1(O)C[C@H](OC2CC(N(C)C)C(OC3CC(O)C(OC4CCC(=O)C(C)O4)C(C)O3)C(C)O2)c2c(cc3c(c2O)C(=O)c2c(O)cccc2C3=O)[C@H]1C(=O)OC` (some centres not stated), the concentration giving a half-maximal response (EC50) came to 7000 nM.

For the compound `CC(C(=O)O)c1ccc(N2Cc3ccccc3C2=O)cc1` (configuration not stated), the EC50 is 600 nM.

With `O[N+]1=CC=CCC1=S.On1ccccc1=S.[Zn]`, the half-maximal effective concentration (EC50) was 1250 nM.
